Measured values from paper PMC11087525 (Scientific Reports, 2024).

How the values were obtained:
[1] = tested on: SARS-CoV-2 Delta variant; details: cited from earlier work
[2] = tested on: SARS-CoV-2 Delta variant; format: cell-based

CC(C)(C)[C@H](NC(=O)C(F)(F)F)C(=O)N1C[C@H]2[C@@H]([C@H]1C(=O)N[C@H](C#N)C[C@@H]1CCNC1=O)C2(C)C [NMR, nirmatrelvir]
EC90 for the Delta variant ([1]; conversion of 0.149 µM): ~ 100 ng/mL
EC90 ([1]; used in PBPK simulation study): 149 nM
EC90 for the Delta variant multiplied by a factor of 3 [2]: 0.3 µg/mL
